Reference: article PMC12794186, “Covalent Alkynylpyridopyrimidinones Targeting Cysteine 775 of the Epidermal Growth Factor Receptor Overcome Resistance to Current Therapies” (Journal of Medicinal Chemistry, 2025)
Where two headings read alike, the source gives them in different places.

Key:
wild-type EGFR (WT-EGFR) = target: T1, wild-type EGFR (WT-EGFR) (Homo sapiens, UniProt P00533); assay: TR-FRET fluorescent probe displacement assay; format: binding; conditions: TR-FRET, n > 3
T1 construct: made in house; host or cells: SF9 insect cells (MultiBac)
T1 sequence (P00533 696-1022 limits assumed): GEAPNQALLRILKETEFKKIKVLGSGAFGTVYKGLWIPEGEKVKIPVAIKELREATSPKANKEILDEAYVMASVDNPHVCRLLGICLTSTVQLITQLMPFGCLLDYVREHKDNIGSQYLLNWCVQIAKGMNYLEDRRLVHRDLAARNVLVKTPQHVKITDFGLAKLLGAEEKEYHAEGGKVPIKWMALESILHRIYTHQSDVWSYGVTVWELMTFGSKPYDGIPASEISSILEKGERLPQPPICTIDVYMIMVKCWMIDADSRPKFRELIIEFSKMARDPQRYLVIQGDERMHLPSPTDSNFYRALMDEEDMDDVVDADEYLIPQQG
Experimental: Compounds (dissolved to 100 mM in DMSO) were dispensed into black low volume 384 well assay plates (Corning) over a final concentration range of 100,000, 30,000, 10,000, 3000, 1000, 300, 100, 30, 10, and 3 nM using an Echo 550 (Labcyte). Positive control compound and DMSO as a negative control were dispensed into the first and last well, respectively. Each well was backfilled with DMSO to a final volume of 200 nL, resulting in final assay DMSO concentrations of 1%. […] The data were analyzed using Graphpad Prism/Dotmatics Studies Software. Assays conducted in technical replicate and repeated as a biological duplicate.

[1] = system: H1975 (L858R, T790M) cells; assay: Adherent cell growth inhibition (CyQUANT); format: cell-based; conditions: Homo sapiens, NCI-H1975; replenishment of compound every 72 h; read-out: H1975 EGFR GI50
Experimental: (§1) For adherent cell assays, each cell line was plated on day 0 in a 96-well plate at a density known to allow for exponential growth over 72 h. After 24 h, the compounds were diluted to the required concentrations in DMEM + 10% FBS media, maintaining a consistent final DMSO concentration of 0.1%. […] Growth inhibition was then assessed using a CyQUANT Direct Cell Proliferation assay (Invitrogen Cat No. C35011) following the manufacturer’s instructions. Fluorescence intensity (ex/em 480/520 nm) values were acquired using a PHERAstar microplate reader reader (BMG Labtech) and values were expressed as a percentage of the average DMSO treated value.

A431 (WT-EGFR) cells = assay: Adherent cell growth inhibition (CyQUANT); format: cell-based; conditions: Homo sapiens, A-431; replenishment of compound every 72 h
Experimental: as §1

[2] = system: pERK1/2 phosphorylation in H1975 (L858R, T790M) cells; assay: Western blot of ERK1/2 phosphorylation; format: cell-based; conditions: H1975, 4 h exposure
Experimental: Cells, seeded on the previous day, were incubated with test compound at the indicated concentrations or DMSO (0.1%) for 4 h. Cells were lysed in Phosphosafe extraction buffer (Merck, Cat. No. 71296) combined with cOmplete Protease Inhibitor Cocktail (Merck, Cat. No. 4693116001) prepared as per the manufacturer’s instructions. Protein concentrations were determined using BCA Protein Assay Kit (Thermo Scientific, Cat. No. 23227). Preparation of lysates and Western blotting was performed twice as independent experiments.
Samples were prepared by diluting lysates in PBS to the desired concentration and before adding 4X XT sample buffer. Samples were then denatured at 98 °C for 5 min and then centrifuged to remove the residue. […] The quality of transfer was assessed using Ponceau S Stain (Sigma-Aldrich Cat. No. p7170).
Primary antibodies raised to EGFR (CST Cat. No. 4267), phospho-EGFR (CST Cat. No. 3777), phospho-p44/42 MAPK(ERK1/2) (CST Cat. No. 9101S) and p44/42 MAPK (CST Cat. No. 9102S) were diluted (1:1000) in 5% BSA w/v. Loading control antibodies were prepared in 5% milk w/v with 1× TBS/T (0.1 v/v) solution at a determined optimum concentration.
Proteins were detected using Clarity ECL substrate (Bio-Rad) and imaged using a Licor Odyssey FC.

C#Cc1cc(=O)n(-c2ccccc2)c2nc(Nc3ccc(N(C)CCN(C)C)cc3)ncc12 [Compound 7, 2-((4-((2-(Dimethylamino)ethyl)(methyl)amino)phenyl)amino)-5-ethynyl-8-phenylpyrido[2,3-d]pyrimidin-7(8H)-one]
IC50 (wild-type EGFR (WT-EGFR); read-out: WT-EGFR IC50): 200 nM | IC50 (wild-type EGFR (WT-EGFR); read-out: WT-EGFR pIC50 ± std dev (converted)): 200 nM | GI50 [1]: 1100 ± 1100 nM | GI50 (A431 (WT-EGFR) cells): 2700 ± 1100 nM | reduction in ERK1/2 phosphorylation (Western blot) [2]: concomitant reduction in ERK1/2 phosphorylation
